Some test systems named below: CAKI-1 renal; HCT-116 colon; OVCAR-4 ovarian; RXF 393 renal; 786-0 renal; SN12C renal; NCI/ADR-RES ovarian; HL-60(TB) leukemia; MCF7 breast; MALME-3M melanoma.
What all share (test): DTP human tumour cell line panel, 48 h

“And” between values parts separate entries of the source, which are not always exact repeats. Equal entries are not always repeated.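 Values below derive from 48-hour exposures of cells grown in 96-well plates, with endpoints linearly interpolated between the two concentrations bracketing the appropriate inhibition level. GI50 is the concentration that inhibits growth by half. TGI: total growth inhibition.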 Where only a bound is given, the exact number is not on record here.

As for `CCOc1ccc2cc(-c3nn(CC4CCNCC4)c4ncnc(N)c34)ccc2c1`, the GI50 (in general, the concentration at which growth is held to half of that of the control) with CAKI-1 renal is 19.2 µM; with HCT-116 colon it was 13.4 µM; in the assay on OVCAR-4 ovarian, 10.9 µM; in the assay with RXF 393 renal, 3.96 µM; with 786-0 renal it was 14.6 µM; with SN12C renal, 11.5 µM. Also, the GI50 was 15.6 µM in the assay on NCI/ADR-RES ovarian, 14.7 µM in the assay with HL-60(TB) leukemia and 11.2 µM in the assay on MCF7 breast. Moreover, the total growth inhibition concentration (TGI) (usually the concentration at which net growth stops) in the assay on CAKI-1 renal is 60 µM; in the assay on HCT-116 colon it was 29.3 µM; in the assay on OVCAR-4 ovarian it was 33.4 µM; in the assay with RXF 393 renal it was 17.1 µM; in the assay with 786-0 renal, 28.4 µM; in the assay on SN12C renal, 33 µM. Besides, the TGI with NCI/ADR-RES ovarian was 29.8 µM; in the assay on HL-60(TB) leukemia, 32.6 µM; in the assay on MCF7 breast, 24.8 µM.

With `Nc1ccccc1C#Cc1ccccc1C#Cc1cccs1`, the GI50 with CAKI-1 renal is 11 µM; in the assay on HCT-116 colon, 12.8 µM; with OVCAR-4 ovarian, 31 µM; with RXF 393 renal, 18.2 µM; in the assay with 786-0 renal, 16.3 µM; with SN12C renal, 14.5 µM. Moreover, the GI50 with NCI/ADR-RES ovarian is 16 µM; in the assay with HL-60(TB) leukemia, 11 µM. For the same compound, the concentration for total growth inhibition (TGI) in the assay on CAKI-1 renal was 25.1 µM; in the assay with HCT-116 colon, 25.4 µM; with OVCAR-4 ovarian it was greater than 100 µM; with RXF 393 renal, greater than 100 µM; in the assay on 786-0 renal, 31 µM; in the assay with SN12C renal, 29.1 µM. Also, the results for the TGI with NCI/ADR-RES ovarian and with HL-60(TB) leukemia were 30.7 µM and greater than 100 µM, respectively.

In the case of `COc1ccccc1NC(=O)C1=C(C)NC(C)=C(C(=O)Nc2ccccc2OC)C1c1ccco1`, the concentration for total growth inhibition (TGI) in the assay with CAKI-1 renal is greater than 24.1 µM; with HCT-116 colon it was 37.4 µM; in the assay on OVCAR-4 ovarian, 88.2 µM; with RXF 393 renal, 10.6 µM; with 786-0 renal it was greater than 77 µM; in the assay on MALME-3M melanoma it was greater than 100 µM. Also, the total growth inhibition concentration (TGI) with SN12C renal was 89.9 µM; in the assay on HL-60(TB) leukemia, 8.51 µM; with MCF7 breast, greater than 100 µM.

With `CCCCCCCCCCCCCCCC[n+]1ccccc1`, the GI50 was 0.616 µM and 1.13 µM with CAKI-1 renal; 0.321 µM in the assay with HCT-116 colon; 0.57 µM in the assay on OVCAR-4 ovarian; 0.224 µM in the assay on RXF 393 renal; 0.548 µM in the assay with 786-0 renal; 0.563 µM in the assay on SN12C renal. In addition, the GI50 in the assay with NCI/ADR-RES ovarian is 2.56 µM and 4.38 µM; in the assay with HL-60(TB) leukemia it was 0.326 µM. The concentration for total growth inhibition (TGI) was 3.38 µM and 10.2 µM in the assay with CAKI-1 renal; 1.31 µM in the assay with HCT-116 colon; 3.29 µM with OVCAR-4 ovarian; 0.688 µM in the assay on RXF 393 renal; 1.91 µM with 786-0 renal; 1.9 µM in the assay on SN12C renal. Further, the TGI in the assay with NCI/ADR-RES ovarian was 15.1 µM and 27 µM; in the assay with HL-60(TB) leukemia, 1.21 µM.

Regarding `CCN(c1ccccc1)[C@H]1C(=O)N(c2ccc([N+](=O)[O-])cc2)[C@H]1c1ccc(OC)cc1`, the concentration for total growth inhibition (TGI) in the assay with CAKI-1 renal, with HCT-116 colon, with RXF 393 renal, in the assay with 786-0 renal, in the assay with MALME-3M melanoma and in the assay on SN12C renal was greater than 100 µM in each case. In the assay on HL-60(TB) leukemia, this compound yielded a TGI greater than 100 µM.

Turning to `COc1cccc(/C=N\NC(=O)C(C)SC(C)C(=O)N/N=C/c2cccc(OC)c2)c1` (stereo unspecified), the concentration for total growth inhibition (TGI) in the assay on CAKI-1 renal was greater than 80.8 µM; in the assay with HCT-116 colon, 34.7 µM; in the assay on OVCAR-4 ovarian, 31.9 µM; with RXF 393 renal, 28.6 µM; in the assay with 786-0 renal it was 31.6 µM; with MALME-3M melanoma, greater than 100 µM. For the same compound, the concentration for total growth inhibition (TGI) in the assay on SN12C renal was 42.8 µM; in the assay on HL-60(TB) leukemia it was greater than 100 µM.

In the case of `C1=CC2CCC1CN2CCC1CNc2ccccc21` (stereo unspecified), the concentration for total growth inhibition (TGI) in the assay on HCT-116 colon, in the assay with RXF 393 renal, in the assay with 786-0 renal, in the assay on MALME-3M melanoma, in the assay with SN12C renal and in the assay on HL-60(TB) leukemia was greater than 100 µM throughout.

For `COc1ccc(/C=N/NS(=O)(=O)c2ccccc2)cc1`, the TGI in the assay on CAKI-1 renal, in the assay with HCT-116 colon, in the assay on OVCAR-4 ovarian, in the assay with RXF 393 renal, with 786-0 renal and with MALME-3M melanoma was greater than 100 µM throughout. The TGI in the assay with SN12C renal and with HL-60(TB) leukemia was greater than 100 µM in each case.

For `COc1cc(OC)c2c(=O)c3cccc([N+](=O)[O-])c3n(C)c2c1`, the total growth inhibition concentration (TGI) in the assay on CAKI-1 renal, in the assay with OVCAR-4 ovarian, in the assay on RXF 393 renal, in the assay on 786-0 renal, in the assay on MALME-3M melanoma and with SN12C renal was greater than 100 µM throughout. For the same compound, the TGI in the assay on HL-60(TB) leukemia was greater than 100 µM.

On to `COc1cc2c3c(n(CCCNCCCNCCCN)c(=O)c2cc1OC)-c1cc2c(cc1C3=O)OCO2`, for which the GI50 was 26.3 µM with CAKI-1 renal; 43 µM in the assay with HCT-116 colon; 6.63 µM in the assay on OVCAR-4 ovarian; greater than 100 µM in the assay with RXF 393 renal; 69.5 µM with 786-0 renal; 32.9 µM in the assay with SN12C renal. Moreover, the GI50 in the assay on HL-60(TB) leukemia and in the assay on MCF7 breast was greater than 100 µM throughout. Besides, the TGI with CAKI-1 renal, in the assay with HCT-116 colon, in the assay with OVCAR-4 ovarian, in the assay with RXF 393 renal, with 786-0 renal and with SN12C renal was greater than 100 µM each time. For the same compound, the concentration for total growth inhibition (TGI) in the assay with HL-60(TB) leukemia and in the assay on MCF7 breast was greater than 100 µM in each case.

For `CCCCC1(C(NC(=O)c2ccccc2Cl)c2ccncc2)C(=O)N(c2ccccc2)N(c2ccccc2)C1=O` (stereo unspecified), the TGI is greater than 100 µM with HCT-116 colon; greater than 100 µM in the assay on RXF 393 renal; greater than 100 µM with 786-0 renal; greater than 100 µM in the assay on MALME-3M melanoma; greater than 100 µM in the assay with SN12C renal; 40.8 µM in the assay on HL-60(TB) leukemia.

`COc1cc2cc(Oc3cccc(NC(=O)Nc4cc(C(F)(F)F)cc(C(F)(F)F)c4)c3)c(C)nc2cc1OC`: the GI50 with CAKI-1 renal was 1.41 µM; with HCT-116 colon, 0.589 µM; with OVCAR-4 ovarian it was 1.22 µM; in the assay on RXF 393 renal, 2.06 µM; in the assay with 786-0 renal, 1.61 µM; in the assay with MALME-3M melanoma, 1.1 µM. Also, the GI50 with SN12C renal is 0.591 µM; in the assay with HL-60(TB) leukemia, 1.58 µM; in the assay with MCF7 breast, 0.544 µM. In addition, the total growth inhibition concentration (TGI) in the assay on CAKI-1 renal was 5.1 µM; with HCT-116 colon, 1.92 µM; with OVCAR-4 ovarian, 4.44 µM; in the assay with RXF 393 renal, 4.79 µM; in the assay with 786-0 renal, 3.09 µM; in the assay with MALME-3M melanoma, 3.46 µM. The total growth inhibition concentration (TGI) turned out to be 2.09 µM in the assay with SN12C renal, 4.37 µM in the assay on HL-60(TB) leukemia and 2.36 µM in the assay on MCF7 breast.

For the compound `C[C@H]1CC[P+](C)(c2ccccc2)C1` (stereo partly specified), the TGI in the assay on HCT-116 colon, in the assay with RXF 393 renal, in the assay on 786-0 renal, with MALME-3M melanoma, in the assay on SN12C renal and in the assay with HL-60(TB) leukemia was greater than 100 µM throughout.

The values are drawn from PubChem BioAssay (NCI).
